Experimental data from patent US9416115B2, “Fused heterocyclic compounds as ion channel modulators” (Gilead Sciences, Inc., priority 2013, dated 2016).
Read-outs that look alike come from different tables or passages of the source.

Assays:
[1] = target: wild-type human cardiac sodium channel, hNav1.5 (Homo sapiens, UniProt Q14524); test: Peak INa screening assay (tonic block and use-dependent block); type: cell-based
Method in brief: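 Whole-cell automated patch clamp, 23-25° C, on hNav1.5 alpha-only HEK293 cells with Na+ lowered to 40 mM by choline. Block measured after two additions of 1 or 3 μM compound and 200 s wait: tonic at 0.1 Hz, use-dependent at 50th pulse (−20 mV, 20 ms, 3 Hz) from −100 mV, relative to drug-free, rundown corrected.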

hNaV1.2 (SCN2A) = target: T1, hNaV1.2 (SCN2A) (Homo sapiens, UniProt Q99250); test: Use-dependent inhibition of the CNS Nav1.2 sodium channel; type: cell-based; conditions: use-dependent block, 25 Hz, pulse 20, read-out: Nav1.2 UDB 25 Hz 10 uM
T1 construct: expressed in transfected cells
T1 sequence (Q99250 whole entry): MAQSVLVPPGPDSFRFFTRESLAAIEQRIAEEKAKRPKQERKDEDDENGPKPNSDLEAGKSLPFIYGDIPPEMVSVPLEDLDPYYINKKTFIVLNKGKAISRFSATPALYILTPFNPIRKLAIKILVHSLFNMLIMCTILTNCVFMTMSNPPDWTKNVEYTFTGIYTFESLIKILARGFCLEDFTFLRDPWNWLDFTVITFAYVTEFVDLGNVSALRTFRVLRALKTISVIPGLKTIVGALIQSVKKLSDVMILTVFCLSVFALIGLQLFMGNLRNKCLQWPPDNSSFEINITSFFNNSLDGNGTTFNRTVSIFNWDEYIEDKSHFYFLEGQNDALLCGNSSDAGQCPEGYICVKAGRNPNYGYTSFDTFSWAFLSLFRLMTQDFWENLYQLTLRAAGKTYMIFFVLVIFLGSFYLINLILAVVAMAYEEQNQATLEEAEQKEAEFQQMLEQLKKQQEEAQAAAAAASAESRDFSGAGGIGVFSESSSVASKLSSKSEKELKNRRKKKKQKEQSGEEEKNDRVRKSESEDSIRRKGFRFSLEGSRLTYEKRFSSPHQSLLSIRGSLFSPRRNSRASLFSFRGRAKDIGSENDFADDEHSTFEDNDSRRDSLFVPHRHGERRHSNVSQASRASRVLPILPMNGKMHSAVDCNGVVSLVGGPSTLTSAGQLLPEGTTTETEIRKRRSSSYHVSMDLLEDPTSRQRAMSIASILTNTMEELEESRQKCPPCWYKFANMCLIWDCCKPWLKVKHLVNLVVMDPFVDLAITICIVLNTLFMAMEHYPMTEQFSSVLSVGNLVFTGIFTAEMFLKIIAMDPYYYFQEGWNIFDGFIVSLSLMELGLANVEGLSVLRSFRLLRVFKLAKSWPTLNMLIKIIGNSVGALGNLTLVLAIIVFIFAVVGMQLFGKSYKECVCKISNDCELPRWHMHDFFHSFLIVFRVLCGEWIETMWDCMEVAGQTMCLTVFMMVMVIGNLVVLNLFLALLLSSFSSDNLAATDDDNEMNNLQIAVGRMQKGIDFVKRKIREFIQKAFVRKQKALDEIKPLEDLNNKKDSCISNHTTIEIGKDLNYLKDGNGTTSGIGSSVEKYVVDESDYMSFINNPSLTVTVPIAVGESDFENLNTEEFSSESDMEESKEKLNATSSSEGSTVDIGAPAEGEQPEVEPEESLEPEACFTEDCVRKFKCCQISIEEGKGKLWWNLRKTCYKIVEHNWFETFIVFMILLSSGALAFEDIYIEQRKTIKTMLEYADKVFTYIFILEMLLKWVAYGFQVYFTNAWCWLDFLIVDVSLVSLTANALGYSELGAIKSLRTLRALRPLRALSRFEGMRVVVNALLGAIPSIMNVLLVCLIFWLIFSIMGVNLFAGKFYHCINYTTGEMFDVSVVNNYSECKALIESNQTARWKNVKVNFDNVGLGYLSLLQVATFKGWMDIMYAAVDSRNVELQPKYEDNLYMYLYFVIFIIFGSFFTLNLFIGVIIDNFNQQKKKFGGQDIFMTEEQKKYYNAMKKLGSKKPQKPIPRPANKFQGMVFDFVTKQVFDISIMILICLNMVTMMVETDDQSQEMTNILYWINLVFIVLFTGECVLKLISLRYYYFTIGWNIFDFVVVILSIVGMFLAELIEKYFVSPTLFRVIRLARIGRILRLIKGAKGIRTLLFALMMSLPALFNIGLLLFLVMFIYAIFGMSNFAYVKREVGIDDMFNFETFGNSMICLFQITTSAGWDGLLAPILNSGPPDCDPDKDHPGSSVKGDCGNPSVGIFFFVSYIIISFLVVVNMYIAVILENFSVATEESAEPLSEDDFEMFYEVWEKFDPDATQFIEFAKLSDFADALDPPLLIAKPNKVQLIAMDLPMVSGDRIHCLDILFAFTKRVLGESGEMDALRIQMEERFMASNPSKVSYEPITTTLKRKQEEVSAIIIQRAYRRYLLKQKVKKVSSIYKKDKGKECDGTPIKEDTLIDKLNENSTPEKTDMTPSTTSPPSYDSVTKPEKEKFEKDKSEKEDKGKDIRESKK
T1 sequence (Q07699 19-218 partner): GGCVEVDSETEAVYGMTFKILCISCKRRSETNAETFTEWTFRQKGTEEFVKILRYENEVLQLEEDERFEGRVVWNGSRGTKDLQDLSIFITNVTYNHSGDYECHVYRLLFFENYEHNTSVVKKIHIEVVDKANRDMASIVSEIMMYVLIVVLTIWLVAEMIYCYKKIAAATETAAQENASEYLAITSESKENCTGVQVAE
T1 sequence (O60939 30-215 partner): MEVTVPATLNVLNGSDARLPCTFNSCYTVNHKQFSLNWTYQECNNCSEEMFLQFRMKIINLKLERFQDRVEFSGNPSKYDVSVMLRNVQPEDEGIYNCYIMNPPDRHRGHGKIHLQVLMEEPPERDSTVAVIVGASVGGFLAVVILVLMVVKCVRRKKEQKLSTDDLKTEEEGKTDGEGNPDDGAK
Method in brief: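 Use-dependent block of human Nav1.2 was measured by automated whole-cell patch clamp (QPatch) in HEK-293 cells stably expressing hNaV1.2 with SCN1B and SCN2B. From a holding potential of −120 mV, a train of 20 pulses to 0 mV (20 ms, 25 Hz) was applied. Peak current at pulse 20 was normalized to the first pulse, and percent inhibition was calculated relative to compound-free recordings.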

[2] = tonic block of Peak INa, 0.1 Hz, holding -100 mV, read-out: Peak TB 3 uM
[3] = use-dependent block of Peak INa, 3 Hz, pulse 50, read-out: Peak UDB 3 Hz 3 uM

Sequence of wild-type human cardiac sodium channel, hNav1.5 (Q14524 whole entry): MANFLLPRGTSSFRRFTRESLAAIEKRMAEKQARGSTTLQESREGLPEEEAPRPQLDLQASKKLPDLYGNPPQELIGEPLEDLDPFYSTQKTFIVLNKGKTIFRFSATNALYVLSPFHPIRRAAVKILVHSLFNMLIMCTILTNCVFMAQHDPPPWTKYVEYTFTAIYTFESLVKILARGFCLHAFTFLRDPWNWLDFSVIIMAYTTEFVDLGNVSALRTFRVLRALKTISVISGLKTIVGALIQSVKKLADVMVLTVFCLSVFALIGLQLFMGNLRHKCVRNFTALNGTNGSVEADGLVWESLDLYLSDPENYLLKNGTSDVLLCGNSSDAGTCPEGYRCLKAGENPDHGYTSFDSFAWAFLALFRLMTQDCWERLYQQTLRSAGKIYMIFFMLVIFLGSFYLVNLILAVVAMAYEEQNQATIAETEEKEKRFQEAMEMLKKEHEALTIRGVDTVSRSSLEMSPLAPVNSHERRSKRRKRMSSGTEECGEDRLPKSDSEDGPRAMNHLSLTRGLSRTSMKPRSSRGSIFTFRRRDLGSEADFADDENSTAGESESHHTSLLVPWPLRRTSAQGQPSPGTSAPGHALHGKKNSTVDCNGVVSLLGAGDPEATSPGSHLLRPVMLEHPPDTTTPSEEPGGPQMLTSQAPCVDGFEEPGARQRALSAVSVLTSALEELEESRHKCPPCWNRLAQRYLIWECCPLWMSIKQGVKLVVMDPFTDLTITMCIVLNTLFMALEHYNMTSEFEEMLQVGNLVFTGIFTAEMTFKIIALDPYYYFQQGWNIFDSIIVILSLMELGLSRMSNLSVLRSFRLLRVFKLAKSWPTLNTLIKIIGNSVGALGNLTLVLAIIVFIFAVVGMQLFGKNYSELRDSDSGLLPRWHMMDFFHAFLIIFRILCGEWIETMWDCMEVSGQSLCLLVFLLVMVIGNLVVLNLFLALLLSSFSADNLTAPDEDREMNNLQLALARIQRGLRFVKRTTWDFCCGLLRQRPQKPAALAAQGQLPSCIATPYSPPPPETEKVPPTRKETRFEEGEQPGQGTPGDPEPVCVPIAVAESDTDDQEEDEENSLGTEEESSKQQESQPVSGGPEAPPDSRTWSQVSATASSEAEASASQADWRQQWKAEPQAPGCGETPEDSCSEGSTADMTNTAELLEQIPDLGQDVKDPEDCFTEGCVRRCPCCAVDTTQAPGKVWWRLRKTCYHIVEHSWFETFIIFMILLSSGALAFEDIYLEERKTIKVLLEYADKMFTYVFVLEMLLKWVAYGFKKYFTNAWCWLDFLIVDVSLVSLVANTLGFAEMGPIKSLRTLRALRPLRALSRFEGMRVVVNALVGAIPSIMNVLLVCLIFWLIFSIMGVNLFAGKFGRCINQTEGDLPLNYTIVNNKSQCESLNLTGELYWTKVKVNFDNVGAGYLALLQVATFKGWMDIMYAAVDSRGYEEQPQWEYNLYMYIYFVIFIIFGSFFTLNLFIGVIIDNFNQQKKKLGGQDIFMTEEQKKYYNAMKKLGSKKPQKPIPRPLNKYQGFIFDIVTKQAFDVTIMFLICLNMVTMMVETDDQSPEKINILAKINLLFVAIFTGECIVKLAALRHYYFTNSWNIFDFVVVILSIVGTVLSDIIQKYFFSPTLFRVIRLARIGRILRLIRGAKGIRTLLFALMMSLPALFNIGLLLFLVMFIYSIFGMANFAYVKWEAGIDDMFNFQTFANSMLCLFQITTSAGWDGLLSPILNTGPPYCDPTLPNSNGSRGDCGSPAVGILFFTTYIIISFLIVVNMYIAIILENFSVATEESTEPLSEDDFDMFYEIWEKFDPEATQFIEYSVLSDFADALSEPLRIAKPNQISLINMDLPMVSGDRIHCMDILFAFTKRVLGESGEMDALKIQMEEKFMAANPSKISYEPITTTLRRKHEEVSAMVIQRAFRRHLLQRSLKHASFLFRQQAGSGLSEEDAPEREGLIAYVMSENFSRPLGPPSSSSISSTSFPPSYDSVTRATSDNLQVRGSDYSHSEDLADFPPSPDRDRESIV

**Q.** For `CC(C)c1nccn1-c1noc2ccc(-c3ccc(OC(F)(F)F)cc3)cc12` [Example 144, 3-(2-isopropyl-1H-imidazol-1-yl)-5-(4-(trifluoromethoxy)phenyl)benzo[d]isoxazole], which inhibition at 3 µM [1, 2] is on record?
**A.** The inhibition at 3 µM was 46.9%.

**Q.** What about the inhibition at 3 µM [1, 3] of the same compound?
**A.** The inhibition at 3 µM was less than 5%.

**Q.** What about the inhibition at 10 µM (hNaV1.2 (SCN2A)) of the same compound?
**A.** Its inhibition at 10 µM is 75.8%.

**Q.** Which results are given for `FC(F)(F)Oc1ccc(-c2ccc3onc(-n4cnc(C(F)(F)F)c4)c3c2)cc1` [Example 145, 5-(4-(trifluoromethoxy)phenyl)-3-(4-(trifluoromethyl)-1H-imidazol-1-yl)benzo[d]isoxazole]?
**A.** inhibition at 3 µM [1, 2]: 93%; inhibition at 3 µM [1, 3]: < 5%; inhibition at 10 µM (hNaV1.2 (SCN2A)): 75.8%

**Q.** Which results are given for `OCc1cn(-c2noc3ccc(-c4ccc(OC(F)(F)F)cc4)cc23)cn1` [Example 146, (1-(5-(4-(trifluoromethoxy)phenyl)benzo[d]isoxazol-3-yl)-1H-imidazol-4-yl)methanol]?
**A.** inhibition at 3 µM [1, 2]: 28.8%; inhibition at 3 µM [1, 3]: 25.5%; inhibition at 10 µM (hNaV1.2 (SCN2A)): 75.8%

**Q.** Which inhibition at 3 µM [1, 2] does the source give for `Nc1noc2ccc(-c3ccc(OC(F)(F)F)cc3)cc12` [Example 147, 5-(4-(trifluoromethoxy)phenyl)benzo[d]isoxazol-3-amine] here?
**A.** Its inhibition at 3 µM is 26%.

**Q.** And the inhibition at 3 µM [1, 3]?
**A.** The inhibition at 3 µM was 3%.

**Q.** And the inhibition at 10 µM (hNaV1.2 (SCN2A))?
**A.** The inhibition at 10 µM was 20.4%.

**Q.** For `COc1ccnc(CNc2noc3ccc(-c4ccc(OC(F)(F)F)cc4)cc23)n1` [Example 149, N-((4-methoxypyrimidin-2-yl)methyl)-5-(4-(trifluoromethoxy)phenyl)benzo[d]isoxazol-3-amine], which inhibition at 3 µM [1, 2] is on record?
**A.** The inhibition at 3 µM was 86.4%.

**Q.** And the inhibition at 3 µM [1, 3]?
**A.** The inhibition at 3 µM was less than 5%.

**Q.** And the inhibition at 10 µM (hNaV1.2 (SCN2A))?
**A.** The inhibition at 10 µM was 44.4%.

**Q.** What does the source list for `CCN(CC)C(=O)COc1noc2ccc(-c3ccc(OC(F)(F)F)cc3)cc12` [Example 150, N,N-diethyl-2-((5-(4-(trifluoromethoxy)phenyl)benzo[d]isoxazol-3-yl)oxy)acetamide]?
**A.** inhibition at 3 µM [1, 2]: 58.5%; inhibition at 3 µM [1, 3]: 9.3%; inhibition at 10 µM (hNaV1.2 (SCN2A)): 51%

**Q.** Which results are given for `FC(F)(F)Oc1ccc(-c2ccc3onc(OCc4cnccn4)c3c2)cc1` [Example 151, 3-(pyrazin-2-ylmethoxy)-5-(4-(trifluoromethoxy)phenyl)benzo[d]isoxazole]?
**A.** inhibition at 3 µM [1, 2]: 43.3%; inhibition at 3 µM [1, 3]: < 5%; inhibition at 10 µM (hNaV1.2 (SCN2A)): 18.6%

**Q.** Which inhibition at 3 µM [1, 2] does the source give for `Cc1nccnc1COc1noc2ccc(-c3ccc(OC(F)(F)F)cc3)cc12` [Example 152, 3-((3-methylpyrazin-2-yl)methoxy)-5-(4-(trifluoromethoxy)phenyl)benzo[d]isoxazole] here?
**A.** Its inhibition at 3 µM is 30.6%.

**Q.** What about the inhibition at 3 µM [1, 3] of the same compound?
**A.** Its inhibition at 3 µM is less than 5%.

**Q.** What about the inhibition at 10 µM (hNaV1.2 (SCN2A)) of the same compound?
**A.** Its inhibition at 10 µM is 13.8%.

**Q.** What does the source list for `Cc1nnc(C(C)Oc2noc3ccc(-c4ccc(OC(F)(F)F)cc4)cc23)o1` (centres unmarked) [Example 153, 3-(1-(5-methyl-1,3,4-oxadiazol-2-yl)ethoxy)-5-(4-(trifluoromethoxy)phenyl)benzo[d]isoxazole]?
**A.** inhibition at 3 µM [1, 2]: 57.6%; inhibition at 10 µM (hNaV1.2 (SCN2A)): 53.7%

**Q.** Which results are given for `FC(F)(F)Oc1ccc(-c2ccc3onc(OCc4nnc(C5CC5)s4)c3c2)cc1` [Example 154, 3-((5-cyclopropyl-1,3,4-thiadiazol-2-yl)methoxy)-5-(4-(trifluoromethoxy)phenyl)benzo[d]isoxazole]?
**A.** inhibition at 3 µM [1, 2]: 7.68%; inhibition at 3 µM [1, 3]: < 5%; inhibition at 10 µM (hNaV1.2 (SCN2A)): 27%

**Q.** With `Cc1nnc(COc2noc3c(F)cc(-c4ccc(OC(F)(F)F)cc4)cc23)o1` [Example 155, 7-fluoro-3-((5-methyl-1,3,4-oxadiazol-2-yl)methoxy)-5-(4-(trifluoromethoxy)phenyl)benzo[d]isoxazole] as the compound, how does the inhibition at 3 µM [1, 2] read?
**A.** The inhibition at 3 µM was 24.8%.

**Q.** What about the inhibition at 3 µM [1, 3] of the same compound?
**A.** Its inhibition at 3 µM is 8.4%.

**Q.** What about the inhibition at 10 µM (hNaV1.2 (SCN2A)) of the same compound?
**A.** The inhibition at 10 µM was 58.6%.

**Q.** For `FC(F)(F)Oc1ccc(-c2ccc3onc(NCc4ncco4)c3c2)cc1` [Example 156, N-(oxazol-2-ylmethyl)-5-(4-(trifluoromethoxy)phenyl)benzo[d]isoxazol-3-amine], which inhibition at 3 µM [1, 2] is on record?
**A.** The inhibition at 3 µM was 10.4%.

**Q.** And the inhibition at 3 µM [1, 3]?
**A.** The inhibition at 3 µM was less than 5%.

**Q.** And the inhibition at 10 µM (hNaV1.2 (SCN2A))?
**A.** Its inhibition at 10 µM is 10.6%.

**Q.** What does the source list for `CC(C)(C)OC(=O)COc1noc2ccc(-c3ccc(OC(F)(F)F)cc3)cc12` [Example 157, tert-butyl 2-((5-(4-(trifluoromethoxy)phenyl)benzo[d]isoxazol-3-yl)oxy)acetate]?
**A.** inhibition at 3 µM [1, 2]: 15.6%; inhibition at 3 µM [1, 3]: < 5%; inhibition at 10 µM (hNaV1.2 (SCN2A)): < 5%
